Measurements as given in patent US8883504B2, “Cell differentiation suppressing agent, method of culturing cells using the same, culture solution, and cultured cell line” (Asahi Kasei Kabushiki Kaisha, priority 2003, dated 2014).

System: Nanog gene
Test: Nanog gene expression level by real time PCR (ES cell differentiation inhibition assay 3)
Assay type: cell-based, mouse
Conditions: D3ES cells, 4 μg/mL, 1 day, GAPDH internal standard, FIG. 7
Protocol: For the D3ES cells prepared by the method described in (3) preparation of a mouse ES cell of Example 1, 7.85×10^5 cells were seeded in a 10 cm-diameter cell culture dish coated previously with a 0.1% aqueous gelatin solution to make 10 mL of the ES cell assay medium. The differentiation inhibiting agent B of the present invention in the final concentration of 4 μg/mL or ESGRO in the final concentration of 1×10^3 unit/mL was added to each dish, and culturing was carried out at 37° C. in 5% CO2 incubator for 1 day.
The total RNA was extracted from the ES cell cultured by the method shown in (3) ES cell differentiation inhibition assay 3 as described above by using ISOGEN (K.K. Nippon Gene Corp. Japan made) by the attached method. In this method, the cell was collected in a 15 mL sterilized tube, centrifuged at 1,000 rpm for about 5 minutes by using the table centrifuge (TOMY SEIKO made) to make pellets. The supernatant was removed, the pellets were washed twice with 10 mL of PBS, and then, transferred to a 1.5 mL Eppendorf tube. The pellets were dissolved in 1 ml ISOGENE and left stand at room temperature for 5 minutes and, then, added with 0.2 mL of chloroform (Wako Pure Chemicals), shaken for 15 seconds, and left stand at room temperature for 2 or 3 minutes. Centrifugation was carried out at 4° C. at 10,000 rpm for 15 minutes by using the micro centrifuge (TOMY SEIKO made), 400 μL of the supernatant was transferred to a fresh 1.5 mL Eppendorf tube. 500 μL of isopropanol (Wako Pure Chemicals) was added and the mixture was left stand at room temperature for 10 minutes and, then, was centrifuged at 4° C. at 10,000 rpm for 10 minutes by using the micro centrifuge. The supernatant was removed and, then, 1 mL of a 70% ethanol aqueous solution was added. The mixture was shaken and then was centrifuged at 4° C. at 10,000 rpm for about 5 minutes by using the micro centrifuge. The supernatant was removed and the precipitation was dried and, then, dissolved in 30 μL of distilled water to obtain the total RNA solution.
The cDNA was synthesized by using 2 μg of the total RNA obtained by such the way as the template, using DeoxyribonucleaseI (Amplification Grade) (Invitrogen Corp. made) and SuperScript III First-Strand Synthesis System for RT-PCR (Invitrogen Corp. made, 18080-051) by the attached protocol. In this step, 1 μL of 10× DNaseI Reaction Buffer, 1 μL of 10× DNaseI (all these were of Invitrogen Corp. made) were added to 2 μg of the total RNA to give the total volume of 10 μL by adding distilled water to prepare the reaction solution, and then incubation was carried out at room temperature for 10 minutes. 1 μL of 25 mM EDTA solution was added, and the mixture was heated at 65° C. for 10 minutes and then, cooled to room temperature. 8 μL of the reaction solution was taken out, and 1 μL of […] Oligo(dT) 20 primer and 1 μL of 10 mM dNTP Mix were added, and incubation was carried out at 65° C. for 5 minutes. The reaction solution was placed on ice for 1 minute, and then 2 μL of 10× RT Buffer, 4 μL of 25 mM MgCl2, 2 μL of 0.1 M DTT, 1 μL of RNaseOUT (Invitrogen Corp. made) and 1 μL of SuperScript III RT were added for incubation at 50° C. for 50 minutes. Subsequently, incubation was carried out at 85° C. for 5 minutes, and then the mixture was left stand on ice for 1 min. […] The expression level of the Nanog gene and the glyceraldehyde-3-phosphate dehydrogenase (GAPDH) gene as the internal standard were measured. […]

SMILES | expression level of Nanog gene in comparison with medium without agent and medium containing 1,000 units/mL of ESGRO
CC1(C)Cc2ccccc2C(=C(N=Nc2cccc(Cl)c2)C(N)=O)N1 [C, 2-(3-chloro-phenylazo)-2-(3,3-dimethyl-3,4-dihydro-2H-isoquinoline-1-ylidene)-acetamide] | increased similarly to the differentiation inhibiting agents B
CC1(C)Cc2ccccc2C(=C(N=Nc2cccc([N+](=O)[O-])c2)C(N)=O)N1 [E, 2-(3,3-dimethyl-3,4-dihydro-2H-isoquinoline-1-ylidene)-2-(3-nitro-phenylazo)-acetamide] | increased similarly to the differentiation inhibiting agents B
COc1ccc(N=NC(C(N)=O)=C2NC(C)(C)Cc3ccccc32)cc1 [F, 2-(3,3-dimethyl-3,4-dihydro-2H-isoquinoline-1-ylidene)-2-(4-methoxy-phenylazo)-acetamide] | increased similarly to the differentiation inhibiting agents B
CC(=O)c1ccc(/N=N/C(C(N)=O)=C2/NC(C)(C)Cc3ccccc32)cc1 [compound B, 2-(4-acetyl-phenylazo)-2-(3,3-dimethyl-3,4-dihydro-2H-isoquinoline-1-ylidene)-acetamide] | increased significantly
